Assay results reported in patent US20160200789A1, “IL4 CONJUGATED TO ANTIBODIES AGAINST EXTRACELLULAR MATRIX COMPONENTS” (PHILOGEN S.P.A., priority 2013, published 2016).

Columns and labels:
Fibrosarcoma Wehi-164 = assay: Therapy of Wehi-164 fibrosarcoma-bearing mice; assay type: in vivo, mouse; conditions: 4 cycles i.v. every 48 h, equimolar doses
Description: Fibrosarcoma Wehi-164 exponentially growing cells were harvested, repeatedly washed and re-suspended in serum-free medium prior to injection. The tumor cells were injected subcutaneously (5×10^6) in the right flank of Balb/c mice. Tumor weights (mg=mm^3) were calculated as follows: (length [mm]×width^2 [mm^2])/2.
Treatment started when tumors reached approximately 100 mg. Mice received 4 cycles of therapy, every 48 h starting from day 5 after tumor cell injection. L19-IL4 (SEQ ID NO:64) was administered i.v. at the dose of 130 μg/mouse; equimolar amounts of KSF-IL4 (130 μg/mouse) (SEQ ID NO:44), KSF-IL10 (150 μg/mouse) (SEQ ID NO:65) and L19-IL10 (150 μg/mouse) (SEQ ID NO:66) were administered. Control mice received sterile vehicle solution (PBS). The results are shown in FIG. 16 (mean tumour weight over time). The number of mice in each treatment group was 3-4.

[1] = target: T1, EDA domain of fibronectin (Homo sapiens, UniProt P02751); assay: Surface plasmon analysis (BIAcore) on EDA antigen-coated sensor chip; assay type: binding
T1 construct: surface plasmon analysis (BIAcore) on an EDA antigen-coated sensor chip
T1 sequence (P02751 1727-1814 limits assumed): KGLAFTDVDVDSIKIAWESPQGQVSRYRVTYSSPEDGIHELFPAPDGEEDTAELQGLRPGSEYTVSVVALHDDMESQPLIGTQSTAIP
Excerpt: The fusion protein was expressed and purified to homogeneity as described for F8-IL4 above.

[2] = test system: tumour neovascular structures in murine F9, CT26 and A20 tumours; assay: Immunofluorescence on untreated tumour sections; set-up: species or system mouse; conditions: biotinylated protein on F9, CT26 and A20 tumour sections
Excerpt: For detection streptavidin-Alexa Fluor 488 and anti-rat-Alexa Fluor 594 (Invitrogen) were used. Slides were mounted with fluorescent mounting medium (Dako) and analyzed with an Axioskop2 mot plus microscope (Zeiss).

F9 teratocarcinoma [3] = assay: Quantitative biodistribution in F9 tumour-bearing mice; assay type: in vivo, mouse; conditions: 15 μg radioiodinated protein i.v., 24 hours
Description: The in vivo targeting performance was assessed by quantitative biodistribution where 15 μg of radioiodinated fusion protein was injected i.v. into the lateral tail vein of immunocompetent 11-12 week old female Sv129Ev mice (obtained from Charles River [Germany]), bearing sub-cutaneously grafted F9 tumours (for labelling protocol, see (Pasche et al. 2011)). Mice were sacrificed 24 hours after injection, organs were excised, weighed and radioactivity was measured using a Packard Cobra γ counter.

[4] = test system: endometriotic lesions in Balb/c mice; assay: Endometriosis model in Balb/c mice; assay type: in vivo, mouse; conditions: 200 μg/mouse i.v. days 1, 4, 7; day 15; vs PBS
Description: Endometriosis was induced in sixty eight-week old female Balb/c mice according to the protocol described by Somigliana et al. (1999).
One day after the implantation of endometrial tissue, pairs of mice (who received tissue from the same donor) were treated either with intravenous (i.v.) injections of F8-murine IL4 (200 μg/mouse; SEQ ID NO: 21) or PBS (group 1); or with i.v. injections of KSF-murine IL4 (200 μg/mouse; SEQ ID NO: 44) or PBS (group 2). The same treatment was repeated at days 4 and 7. Mice were sacrificed at day 15.

A20 lymphoma = assay: Therapy studies in A20 tumour-bearing mice; conditions: A20, F8-IL4 vs KSF-IL4 study
Description: (§1) Data represent mean tumour volumes (±SEM), n=5 mice per group. […] Data represent mean tumour volumes (±SEM), n=5 mice per group.
Differences in tumor volume, % ID/g and Tumor-to-blood ratio between therapeutic groups were compared using Graphpad Prism's repeated measures (mixed model) ANOVA analysis.
For this, as well as the other experiments described below, F9 teratocarcinoma (CRL-1720; ATCC, Molsheim Cedex, France), CT26 colon carcinoma (CRL-2638; ATCC, Molsheim Cedex, France) and A20 lymphoma (TIB-208; ATCC, Molsheim Cedex, France) were grown according to the supplier's protocol and tumour cells implanted subcutaneously in the flank using 25×10^6 cells (F9), 2×10^6 cells (CT26) or 8×10^6 cells (A20). F9 teratocarcinoma cells were implanted into 129/SvEv mice (Charles River, Sulzfeld, Germany), CT26 colon carcinoma cells were implanted into Balb/c mice (Elevage Janvier, Le Genest-St-Isle, France) and A20 lymphoma cells were implanted into Balb/c mice (Elevage Janvier, Le Genest-St-Isle, France). Mice were sacrificed when tumour volumes reached a maximum of 2000 mm^3.

CTLL2 cells = assay: CTLL2 cell proliferation bioactivity assay; assay type: cell-based; conditions: 24 h; for EC50: CTLL2 cells, 20000 cells/well
Description: The biological activity of murine IL4 was determined by its ability to stimulate the proliferation of CTLL2 cells. […] After incubation at 37° C. for 24 h, cell proliferation was determined with Cell Titer Aqueous One Solution (Promega).

CT26 colon carcinoma = assay: Therapy studies in CT26 tumour-bearing mice
Description: as §1
In the description of the below experiments, data are expressed as the mean (±SEM). Differences in tumor volume, % ID/g and Tumor-to-blood ratio between therapeutic groups were compared using Graphpad Prism's repeated measures (mixed model) ANOVA analysis.
Mice were sacrificed when tumour volumes reached a maximum of 2000 mm^3.
In order to study a second immunocompetent mouse model of cancer, the inventors focused on Balb/c mice (obtained from Elevage Janvier [France]) bearing subcutaneous CT26 tumours of colorectal origin.

F9 teratocarcinoma [5] = assay: Therapy studies in F9 teratocarcinoma-bearing mice; assay type: in vivo, mouse; conditions: mouse, in vivo
Description: In a dose finding study, F9 tumour-bearing mice were randomly grouped (n=5) and injected intravenously (i.v.) into the lateral tail vein when tumours were clearly palpable. […] The therapeutic antibodies were all dissolved in phosphate buffered saline (PBS) and this buffer was also used in the negative control treatment groups. The mice were monitored daily and tumour volume was measured with a calliper (volume=length×width^2×0.5).

F9 teratocarcinoma [6] = assay: Biodistribution of F8-hIL4 and F8-hIL4-N284Q in F9 tumour-bearing mice; assay type: in vivo, mouse; conditions: 10 μg radioiodinated antibody i.v., 24 hours
Description: 11-12 weeks old female 129/SvEv mice were obtained from Charles River (Sulzfeld, Germany). Tumor cells were implanted subcutaneously in the flank of the mice using 25×10^6 cells.
The in vivo targeting performance of F8-hIL4, and its unglycosylated variant F8-hIL4-N284Q were evaluated in quantitative biodistribution studies. The antibodies were radioiodinated using […] and Chloramine T hydrate according to the protocol of Pasche et al. 2011. 10 μg of each radioiodiated antibody were injected into the lateral tail vein of the mice. Injected mice were sacrificed 24 hours after injection. Organs were then excised and radioactivity was counted in Cobra gamma counter (Packard, Meriden, Conn.).

KSF-IL10: KSF antibody (hen egg lysozyme) conjugated to IL10; untargeted IL10
therapeutic activity (tumour weight) (Fibrosarcoma Wehi-164): do not promote any significant therapeutic activity

KSF-IL4: antibody KSF (specific to hen egg lysozyme, negative control) in diabody format fused to murine interleukin 4 [reference compound]
affinity for the cognate antigen [1]: retained a high-affinity for the cognate antigen
recognition of tumour neovascular structures [2]: not
accumulation at the tumour site (% ID/g) (F9 teratocarcinoma [3]): not observed
therapeutic activity (tumour weight) (Fibrosarcoma Wehi-164): do not promote any significant therapeutic activity
number of the endometriotic lesions [4]: did not have a significant effect
volume of the endometriotic lesions [4]: did not have a significant effect
statistical significance, tumour volume vs PBS (A20 lymphoma): not statistically significant
EC50 (CTLL2 cells): 0.02 nM
biological cytokine activity (CTLL2 cells; CTLL2 proliferation): comparable to that of recombinant murine IL4
therapeutic performance (CT26 colon carcinoma; 90 μg i.v. every 48 h): not better than saline
statistical significance, tumour volume vs PBS (CT26 colon carcinoma; CT26, F8-IL4 vs KSF-IL4 study): not statistically significant

recombinant IL4: recombinant murine IL4 (eBioscience)
EC50 (CTLL2 cells): 0.028 nM

B1: F8-IL12: IL12-based immunocytokine: murine IL12 fused to single chain F8 diabody (protein)
chain: MWELEKDVYVVEVDWTPDAPGETVNLTCDTPEEDDITWTSDQRHGVIGSGKTLTITVKEFLDAGQYTCHKGGETLSHSHLLLHKKENGIWSTEILKNFKNKTFLKCEAPNYSGRFTCSWLVQRNMDLKFNIKSSSSSPDSRAVTCGMASLSAEKVTLDQRDYEKYSVSCQEDVTCPTAEETLPIELALEARQQNKYENYSTSFFIRDIIKPDPPKNLQMKPLKNSQVEVSWEYPDSWSTPHSYFSLKFFVRIQRKKEKMKETEEGCNQKGAFLVEKTSTEVQCKGGNVCVQAQDRYYNSSCSKWACVPCRVRSGGGGSGGGGSGGGGSRVIPVSGPARCLSQSRNLLKTTDDMVKTAREKLKHYSCTAEDIDHEDITRDQTSTLKTCLPLELHKNESCLATRETSSTTRGSCLPPQKTSLMMTLCLGSIYEDLKMYQTEFQAINAALQNHNHQQIILDKGMLVAIDELMQSLNHNGETLRQKPPVGEADPYRVKMKLCILLHAFSTRVVTINRVMGYLSSAGSADGGEVQLLESGGGLVQPGGSLRLSCAASGFTFSLFTMSWVRQAPGKGLEWVSAISGSGGSTYYADSVKGRFTISRDNSKNTLYLQMNSLRAEDTAVYYCAKSTHLYLFDYWGQGTLVTVSSGGSGGEIVLTQSPGTLSLSPGERATLSCRASQSVSMPFLAWYQQKPGQAPRLLIYGASSRATGIPDRFSGSGSGTDFTLTISRLEPEDFAVYYCQQMRGRPPTFGQGTKVEIKSSSSGSSSSGSSSSGEVQLLESGGGLVQPGGSLRLSCAASGFTFSLFTMSWVRQAPGKGLEWVSAISGSGGSTYYADSVKGRFTISRDNSKNTLYLQMNSLRAEDTAVYYCAKSTHLYLFDYWGQGTLVTVSSGGSGGEIVLTQSPGTLSLSPGERATLSCRASQSVSMPFLAWYQQKPGQAPRLLIYGASSRATGIPDRFSGSGSGTDFTLTISRLEPEDFAVYYCQQMRGRPPTFGQGTKVEIK
modifications: Synthetic sequence Amino acid sequence of (murine)IL12-F8-F8 of PCT/EP2014/053998
notes: IL12-based immunocytokine: murine IL12 fused to single chain F8 diabody
single-agent therapeutic activity (F9 teratocarcinoma [5]): potent single-agent therapeutic activity

B2: L19-IL4: L19 diabody (anti-EDB of fibronectin) fused to murine IL4 (protein)
chain: EVQLLESGGGLVQPGGSLRLSCAASGFTFSSFSMSWVRQAPGKGLEWVSSISGSSGTTYYADSVKGRFTISRDNSKNTLYLQMNSLRAEDTAVYYCAKPFPYFDYWGQGTLVTVSSGGSGGEIVLTQSPGTLSLSPGERATLSCRASQSVSSSFLAWYQQKPGQAPRLLIYYASSRATGIPDRFSGSGSGTDFTLTISRLEPEDFAVYYCQQTGRIPPTFGQGTKVEIKSSSSGSSSSGSSSSGHIHGCDKNHLREIIGILNEVTGEGTPCTEMDVPNVLTATKNTTESELVCRASKVLRIFYLKHGKTPCLKKNSSVLMELQRLFRAFRCLDSSISCTMNESKSTSLKDFLESLKSIMQMDYS
modifications: Synthetic sequence Amino acid sequence of the L19-murine IL4 conjugate of PCT/EP2014/053998
therapeutic activity (tumour weight) (Fibrosarcoma Wehi-164): shows therapeutic activity

B3: F8-hIL4: F8 diabody fused to human IL4, glycosylated (protein)
chain: EVQLLESGGGLVQPGGSLRLSCAASGFTFSLFTMSWVRQAPGKGLEWVSAISGSGGSTYYADSVKGRFTISRDNSKNTLYLQMNSLRAEDTAVYYCAKSTHLYLFDYWGQGTLVTVSSGGSGGEIVLTQSPGTLSLSPGERATLSCRASQSVSMPFLAWYQQKPGQAPRLLIYGASSRATGIPDRFSGSGSGTDFTLTISRLEPEDFAVYYCQQMRGRPPTFGQGTKVEIKSSSSGSSSSGSSSSGHKCDITLQEIIKTLNSLTEQKTLCTELTVTDIFAASKNTTEKETFCRAATVLRQFYSHHEKDTRCLGATAQQFHRHKQLIRFLKRLDRNLWGLAGLNSCPVKEANQSTLENFLERLKTIMREKYSKCSS
modifications: Synthetic sequence Amino acid sequence of F8 - (human) IL4 of PCT/EP2014/053998
notes: F8 diabody fused to human IL4, glycosylated
accumulation at the tumor site (% ID/g) (F9 teratocarcinoma [6]): comparable preferential accumulation at the tumor site

B4: F8-hIL4-N284Q: unglycosylated F8-human IL4 mutant, asparagine 284 substituted with glutamine (protein)
chain: EVQLLESGGGLVQPGGSLRLSCAASGFTFSLFTMSWVRQAPGKGLEWVSAISGSGGSTYYADSVKGRFTISRDNSKNTLYLQMNSLRAEDTAVYYCAKSTHLYLFDYWGQGTLVTVSSGGSGGEIVLTQSPGTLSLSPGERATLSCRASQSVSMPFLAWYQQKPGQAPRLLIYGASSRATGIPDRFSGSGSGTDFTLTISRLEPEDFAVYYCQQMRGRPPTFGQGTKVEIKSSSSGSSSSGSSSSGHKCDITLQEIIKTLNSLTEQKTLCTELTVTDIFAASKQTTEKETFCRAATVLRQFYSHHEKDTRCLGATAQQFHRHKQLIRFLKRLDRNLWGLAGLNSCPVKEANQSTLENFLERLKTIMREKYSKCSS
modifications: Synthetic sequence Amino acid sequence of F8 - (human) IL4 N284Q mutant of PCT/EP2014/053998
notes: unglycosylated F8-human IL4 mutant, asparagine 284 substituted with glutamine
accumulation at the tumor site (% ID/g) (F9 teratocarcinoma [6]): comparable preferential accumulation at the tumor site
